Assay results reported in PubChem BioAssay (NCI).
“And” between values parts separate entries of the source, which are not always exact repeats. Identical values can stand only once.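 Protocol summary: plate cells (96-well), add compound at 5 concentrations, incubate 48 h, interpolate endpoints linearly. GI50 is the concentration that inhibits growth by half. At the TGI there is no net growth.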

Experiments:
Assay in all cases: DTP human tumour cell line panel, 48 h
[1] = tested on: DLD-1 colon
[2] = tested on: DMS 114 small cell lung
[3] = tested on: DMS 273 small cell lung
[4] = tested on: HOP-18 NSCLC
[5] = tested on: HOP-62 NSCLC
[6] = tested on: HOP-92 NSCLC
[7] = tested on: IGROV1 ovarian
[8] = tested on: KM20L2 colon
[9] = tested on: M19-MEL melanoma
[10] = tested on: SNB-78 CNS
[11] = tested on: XF 498 CNS
[12] = tested on: LXFL 529 NSCLC
[13] = tested on: TK-10 renal
[14] = tested on: MDA-N

SMILES	TGI [1]	TGI [2]	TGI [3]	TGI [4]	TGI [5]	TGI [6]	TGI [7]	TGI [8]	TGI [9]	TGI [10]	TGI [11]	TGI [12]	TGI [13]	TGI [14]	GI50 [14]
COC(=O)[C@@H]1c2cc3c(c(O)c2[C@@H](OC)C[C@@]1(C)O)C(=O)c1c(O)cc2c(c1C3=O)OC1O[C@@]2(C)[C@H](O)[C@@H](N(C)C)[C@@H]1O	8.83 µM	0.633 µM	0.779 µM	1.34 µM	1.06 µM	0.14 µM	1.7 µM	0.794 µM	0.88 µM	4.54 µM	0.66 µM	–	–	–	–
Nc1nc2c(ncn2CCOC(c2ccccc2)P(=O)(O)O)c(=O)[nH]1 (configuration not stated)	> 100 µM	–	> 100 µM	–	–	–	> 100 µM	> 100 µM	–	> 100 µM	–	> 100 µM	> 100 µM	–	–
CN(C)CCNCc1c2ccccc2c(CNCCN(C)C)c2ccccc12	> 100 µM	> 70.1 µM	> 100 µM	> 100 µM	75.5 µM	47.3 µM	> 69.4 µM	26 µM	> 57.1 µM	98.4 µM	> 100 µM	–	–	–	–
CCOC(=O)CCC(C(=O)OCC)n1nc2ccc(Nc3c(C)[n+]([O-])c4cc(Cl)ccc4[n+]3[O-])cc2n1 (configuration not stated)	–	–	–	–	> 100 µM	> 100 µM	> 100 µM	–	–	–	–	–	> 100 µM	> 100 µM	–
Oc1cc(Cl)cc2cc(Br)cnc12	–	–	–	–	> 55.1 µM	> 100 µM	> 94.1 µM	–	–	–	–	–	> 100 µM	> 100 µM	–
O=[N+]([O-])CC(SCc1ccccc1)c1ccc2c(c1)OCO2 (configuration not stated)	–	–	–	–	33 µM	21 µM	12.7 µM	–	–	–	–	–	25.2 µM	9.63 µM	–
CCCCCCOc1ccc(NC2=C(Cl)C(=O)c3cccnc3C2=O)cc1	–	–	–	–	5.83 µM	3.53 µM	3.62 µM	–	–	–	–	–	9.49 µM	3.18 µM	–
Cc1cc2c(c3oc(C(O)(CO)C4CO4)cc(=O)c13)C(=O)c1c(O)cccc1C2=O (configuration not stated)	–	–	–	0.0358 µM	0.00989 µM and 0.00353 µM	0.000983 µM	0.0019 µM and 0.00294 µM	–	–	> 100 µM	–	–	–	0.00443 µM and 0.00515 µM	0.00375 µM
COC(=O)c1ccc2n1C1CC3CC(CC2C3)C1	–	–	–	–	> 100 µM	> 100 µM	> 100 µM	–	–	–	–	–	> 100 µM	> 100 µM	–
O=C1CN(c2ccc(Cl)cc2)C(=O)CN1CCN1CC(=O)N(c2ccc(Cl)cc2)CC1=O	–	–	–	–	> 100 µM	> 100 µM	> 100 µM	–	–	–	–	–	> 100 µM	> 100 µM	–
CC(=O)Oc1ccn2nc(C)c(Br)c2c1Br	–	–	–	–	> 87 µM	36.7 µM	> 72.2 µM	–	–	–	–	–	> 94.8 µM	32.6 µM	–
O=[N+]([O-])c1ccc(Cl)cc1C1ON=C(c2ccccc2)N1C12CC3CC(CC(C3)C1)C2 (configuration not stated)	–	–	–	–	> 100 µM	> 100 µM	> 100 µM	–	–	–	–	–	> 100 µM	> 100 µM	–
COc1nn(Cc2ccccc2F)c2ccc([N+](=O)[O-])cc12	–	–	–	–	> 100 µM	> 100 µM	> 100 µM	–	–	–	–	–	> 100 µM	> 100 µM	–
Oc1ccc(-c2nc3cc(C(F)(F)F)ccc3n2CC2CCCN3CCCCC23)cc1 (configuration not stated)	–	–	–	–	26 µM	28.5 µM	26 µM	–	–	–	–	–	30.5 µM	29.7 µM	–
Cn1c(-c2csc(-c3ccc(Cl)cc3)n2)n[nH]c1=S	–	–	–	–	30.2 µM	27.1 µM	38 µM	–	–	–	–	–	40.2 µM	> 100 µM	–
C[n+]1c2ccccc2c(CNC(CCC(N)=O)C(=O)O)c2ccccc21 (configuration not stated)	1.83 µM	2.04 µM	4.44 µM	11.8 µM	12.3 µM	6.96 µM	13.4 µM	12.3 µM	7.91 µM	25.7 µM	3.81 µM	2.26 µM	5.68 µM	10.5 µM	–
CC(C)(C)c1cc(-c2ccc(-c3cc(C(C)(C)C)c(O)c(C(C)(C)C)c3)cc2)cc(C(C)(C)C)c1O	–	–	–	–	> 100 µM	> 100 µM	> 100 µM	–	–	–	–	–	> 100 µM	> 100 µM	–
N#Cc1c(=O)c2cc([N+](=O)[O-])ccc2n2c1[nH]c1ccccc12	–	–	–	–	97.7 µM	> 39 µM	> 83.7 µM	–	–	–	–	–	> 100 µM	> 77.4 µM	–
C=C(C)C1Cc2c(cc(O)c3c(=O)c4ccccc4n(C)c23)O1 (configuration not stated)	> 100 µM	> 100 µM	> 100 µM	> 100 µM	61.3 µM	54.5 µM	–	> 100 µM	–	> 100 µM	41.8 µM	> 100 µM	34.8 µM	–	–
O=[N+]([O-])c1ccc(NC2OCC(O)C(O)C2O)cc1 (configuration not stated)	> 100 µM	> 100 µM	> 100 µM	–	> 100 µM	> 100 µM	> 100 µM	> 100 µM	–	> 100 µM	> 100 µM	> 100 µM	> 100 µM	–	–
COc1ccc(C(=O)N2CCN(c3ccc4c(c3)OCC(=O)N4)CC2)cc1	–	–	–	–	> 100 µM	> 100 µM	> 100 µM	–	–	–	–	–	> 100 µM	> 100 µM	–
C=C(C)CCC1CCCCC(CN(C)C)C1=O (configuration not stated)	–	–	–	–	> 100 µM	> 100 µM	> 100 µM	–	–	–	–	–	> 100 µM	> 100 µM	–
COC1=CC(=O)C(O)=C(C[C@@]2(C)[C@@H]3CCC[C@H](COC(=O)CCCCCNC(=O)OC(C)(C)C)[C@@]3(C)CC[C@@H]2C)C1=O	–	–	–	–	> 10 µM	> 10 µM	> 10 µM	–	–	–	–	–	> 10 µM	> 10 µM	–
CC1=C/C(=N/N2C(=O)/C(=C/c3ccc(Cl)cc3)N=C2c2ccccc2)CC(C)(C)C1	–	–	–	–	> 100 µM	> 100 µM	> 100 µM	–	–	–	–	–	> 100 µM	> 100 µM	–
CCC(=O)OCc1ccc2oc(=O)c(C(=O)Oc3cncc(Cl)c3)cc2c1	–	–	–	–	> 100 µM	> 100 µM	> 100 µM	–	–	–	–	–	> 100 µM	> 100 µM	–
NC1CC2C3CCC2C1C3=O (configuration not stated)	–	–	–	–	> 100 µM	> 100 µM	> 100 µM	–	–	–	–	–	> 100 µM	> 100 µM	–
